Molecules are shown by their SMILES.

Chain of Coagulation factor X (P00742 41-179 limits assumed): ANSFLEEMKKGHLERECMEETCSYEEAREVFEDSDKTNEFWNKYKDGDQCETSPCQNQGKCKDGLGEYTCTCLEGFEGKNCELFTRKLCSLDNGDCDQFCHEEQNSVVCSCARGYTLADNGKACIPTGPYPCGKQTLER
Chain of Coagulation factor X (P00742 235-488 limits assumed): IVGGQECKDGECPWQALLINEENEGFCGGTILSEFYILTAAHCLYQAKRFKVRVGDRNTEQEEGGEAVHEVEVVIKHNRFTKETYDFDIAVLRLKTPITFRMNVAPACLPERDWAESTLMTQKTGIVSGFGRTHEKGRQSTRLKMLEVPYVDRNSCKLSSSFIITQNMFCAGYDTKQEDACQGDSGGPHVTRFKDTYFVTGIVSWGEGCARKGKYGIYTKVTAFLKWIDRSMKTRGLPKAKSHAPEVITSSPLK

Test system in one data set: not listed separately
The data set is described as follows: Clearance in rat. The format is ADME, organism-based. Conditions: in vivo.
Take `C#Cc1ccc(NC(=O)c2ccc(C(=N)N(C)C)cc2)c(C(=O)Nc2ccc(Cl)cn2)c1`: the clearance was found to be 74.8 mL/min/kg.

Test system in another data set: not listed separately
Description: Half life in rat. The format is ADME, organism-based. The following applies: in vivo.
On to `C#Cc1ccc(NC(=O)c2ccc(C(=N)N(C)C)cc2)c(C(=O)Nc2ccc(Cl)cn2)c1`, for which the half-life was 8.4 h.

A further data set addresses Coagulation factor X (Homo sapiens, UniProt P00742). The data set is described as follows: Inhibition of Factor 10a.
Conditions: not given
For `COc1ccc(NC(=O)c2ccc(C(=N)N(C)C)cc2N2CCC(C(=O)O)CC2)c(C(=O)Nc2ccc(Cl)cn2)c1`, the midpoint of inhibition, the IC50, lay at 0.9 nM. `CN(C)C(=N)c1ccc(C(=O)Nc2ccc(Cl)cc2C(=O)Nc2ccc(Cl)cn2)c(N2CCCCC2)c1` registered an IC50 below 0.5 nM. Turning to `COc1ccc(NC(=O)c2ccc(C(=N)N(C)C)cc2N2CCCCC2)c(C(=O)Nc2ccc(Cl)cn2)c1`, the IC50 worked out at 2 nM. In the case of `CN(C)C(=N)c1ccc(C(=O)Nc2ccc(OCC(=O)O)cc2C(=O)Nc2ccc(Cl)cn2)cc1`, 6 nM corresponded to half-maximal inhibition (IC50).

In turn, `CN(C)C(=N)c1ccc(C(=O)Nc2ccc(Cl)cc2C(=O)Nc2ccc(Cl)cn2)c(N2CCC(C(=O)O)CC2)c1` registered an IC50 of 0.7 nM.

The compound `N=C(c1ccc(C(=O)Nc2ccc(Cl)cc2C(=O)Nc2ccc(Cl)cn2)cc1)N1CCC(C(=O)O)CC1` returned an IC50 of 2 nM. As for `Cc1ccc(NC(=O)c2cc(Cl)ccc2NC(=O)c2ccc(C(=N)N(C)C)cc2)nc1`, the IC50 came to 1.1 nM. This IC50 lies about 1.8-fold lower than the previous one. The same measure, in the same setting: the figure for `CN(C)C(=N)c1ccc(C(=O)Nc2ccc(Cl)cc2C(=O)Nc2ccc(Cl)nc2)cc1` is 3 nM. `CN(C)C(=N)c1ccc(C(=O)Nc2ccc(Cl)cc2C(=O)Nc2ccc(Cl)cc2)cc1` displayed an IC50 of 0.7 nM. In turn, `COc1cc(C(=O)Nc2ccc(Cl)cc2C(=O)Nc2ccc(Cl)cn2)ccc1C(=N)N(C)C` came in with an IC50 of 7 nM. As to `CN(C)C(=N)c1ccc(C(=O)Nc2ccc(Cl)cc2C(=O)Nc2ccc(Cl)cn2)c(N2CCCC2)c1`, the IC50 is 2 nM. Consider `C#Cc1ccc(NC(=O)c2cc(Cl)ccc2NC(=O)c2ccc(C(=N)N(C)C)cc2)cc1`, for which the IC50 was determined as 0.9 nM. In turn, `CN(C)C(=N)c1ccc(C(=O)Nc2ccc(Cl)cc2C(=O)Nc2ccc(Cl)s2)cc1` had an IC50 of 6 nM.

The compound `CN(C)C(=N)c1ccc(C(=O)Nc2ccc(Cl)cc2C(=O)Nc2ccc(Cl)cn2)cc1F` registered an IC50 of 1.1 nM. Compared with the last compound, the IC50 is about 5.5-fold lower. The same measure, in the same setting: for `CN(C)C(=N)c1ccc(C(=O)Nc2c(Cl)cccc2C(=O)Nc2ccc(Cl)cn2)cc1` the value was 21 nM. Regarding `CN(C)C(=N)c1ccc(C(=O)Nc2ccc(Cl)cc2C(=O)Nc2ccc(Cl)cn2)c(N2CCOCC2)c1`, 0.7 nM corresponded to half-maximal inhibition (IC50).

Turning to `CN(C)C(=N)c1ccc(C(=O)Nc2ccc(Cl)cc2C(=O)Nc2ccc(Cl)cn2)c(N2CCCCCC2)c1`, the IC50 was found to be 1 nM.

In the case of `CCSc1ccc(NC(=O)c2ccc(C(=N)N(C)C)cc2)c(C(=O)Nc2ccc(Cl)cn2)c1`, 1.3 nM corresponded to half-maximal inhibition (IC50).

Consider `CN(C)C(=N)c1ccc(C(=O)Nc2ccc(S(C)(=O)=O)cc2C(=O)Nc2ccc(Cl)cn2)cc1`, for which the IC50 stood at 1.5 nM. In turn, `CN(C)C(=N)c1ccc(C(=O)Nc2ccsc2C(=O)Nc2ccc(Cl)cn2)cc1` yielded an IC50 of 2 nM.

With `CCOc1cc(Cl)cc(C(=O)Nc2ccc(Cl)cn2)c1NC(=O)c1ccc(C(=N)N(C)C)cc1`, the IC50 was determined as 0.6 nM. Same read-out and setting: for `COc1cc(C(=N)N(C)C)ccc1C(=O)Nc1ccc(Cl)cc1C(=O)Nc1ccc(Cl)cn1` the value was 0.5 nM; for `COCCOc1cc(C(=N)N(C)C)ccc1C(=O)Nc1ccc(Cl)cc1C(=O)Nc1ccc(Cl)cn1`, 1.2 nM. `CCN(C)c1cc(Cl)cc(C(=O)Nc2ccc(Cl)cn2)c1NC(=O)c1ccc(C(=N)N(C)C)cc1` yielded an IC50 of 0.5 nM. For `COCCN(C)c1cc(Cl)cc(C(=O)Nc2ccc(Cl)cn2)c1NC(=O)c1ccc(C(=N)N(C)C)cc1`, 1.2 nM corresponded to half-maximal inhibition (IC50). In the case of `CN(C)C(=N)c1ccc(C(=O)Nc2ccc(Cl)cc2C(=O)Nc2ccc(F)cn2)cc1`, the IC50 is 3 nM. `CN(C)CCOc1cc(C(=N)N(C)C)ccc1C(=O)Nc1ccc(Cl)cc1C(=O)Nc1ccc(Cl)cn1` showed an IC50 below 0.5 nM. Same read-out and setting: for `CN(C)C(=N)c1ccc(C(=O)Nc2c(C(=O)Nc3ccc(Cl)cn3)cc(Cl)cc2N2CCCCC2)cc1` the value was 0.9 nM; for `CN(C)C(=N)c1ccc(C(=O)Nc2ccc(Cl)cc2C(=O)Nc2ccc(Cl)cn2)c(N(C)C)c1`, 3 nM. `CN(C)C(=N)c1ccc(C(=O)Nc2cc(Cl)ccc2C(=O)Nc2ccc(Cl)cn2)cc1` showed an IC50 of 2 nM.

The compound `N=C(c1ccc(C(=O)Nc2ccc(Cl)cc2C(=O)Nc2ccc(Cl)cn2)cc1)N1CCCC1` gave an IC50 of 2 nM. As to `CN(C)C(=N)c1ccc(C(=O)Nc2ccc(Cl)cc2C(=O)Nc2ccc(Cl)cn2)c(N2CCC2)c1`, the IC50 stood at 0.4 nM. `N=C(c1ccc(C(=O)Nc2ccc(Cl)cc2C(=O)Nc2ccc(Cl)cn2)cc1)N1CCCCC1`: inhibition was half-maximal at 1.3 nM (IC50). On the same count and under the same terms, the figure for `CN1CCN=C1c1ccc(C(=O)Nc2ccc(Cl)cc2C(=O)Nc2ccc(Cl)cn2)cc1` is 1.5 nM; for `CN(C)C(=N)c1ccc(C(=O)Nc2ccc(OC(F)(F)F)cc2C(=O)Nc2ccc(Cl)cn2)cc1` it is 17 nM.

`CN(C)C(=N)c1csc(C(=O)Nc2ccc(Cl)cc2C(=O)Nc2ccc(Cl)cn2)c1` registered an IC50 of 1 nM. As to `CCN1CCN=C1c1ccc(C(=O)Nc2ccc(Cl)cc2C(=O)Nc2ccc(Cl)cn2)cc1`, it took 6 nM to reach half-maximal inhibition (IC50).

As to `Cc1ccc(NC(=O)c2ccc(C(=N)N(C)C)cc2)c(C(=O)Nc2ccc(Cl)cn2)c1`, the IC50 came out at 0.7 nM. On the same count and under the same terms, for `CN(C)C(=N)c1ccc(C(=O)Nc2ccc(OCC(F)(F)F)cc2C(=O)Nc2ccc(Cl)cn2)cc1` the value was 10 nM; for `CC(C)Oc1cc(Cl)cc(C(=O)Nc2ccc(Cl)cn2)c1NC(=O)c1ccc(C(=N)N(C)C)cc1`, 0.5 nM. Consider `CCc1ccc(NC(=O)c2ccc(C(=N)N(C)C)cc2)c(C(=O)Nc2ccc(Cl)cn2)c1`, for which the IC50 is 1 nM. As to `C#Cc1ccc(NC(=O)c2ccc(C(=N)N(C)C)cc2)c(C(=O)Nc2ccc(Cl)cn2)c1`, the IC50 was below 0.5 nM. The same measure, in the same setting: the figure for `CN(C)C(=N)c1ccc(C(=O)Nc2ccc(F)cc2C(=O)Nc2ccc(Cl)cn2)cc1` is 1.4 nM; for `CN(C)C(=N)c1ccc(C(=O)Nc2c(C(=O)Nc3ccc(Cl)cn3)cc(Cl)cc2N(C)C)cc1` it is 0.5 nM; for `N=C(c1ccc(C(=O)Nc2ccc(Cl)cc2C(=O)Nc2ccc(Cl)cn2)cc1)N1CCOCC1` it is 2 nM. The same measure, in the same setting: for `CN(C)C(=N)c1ccc(C(=O)Nc2ccc(Cl)cc2C(=O)Nc2ccc(Cl)cn2)cn1` the value was 3 nM; for `CN(C)C(=N)c1ccc(C(=O)Nc2c(C(=O)Nc3ccc(Cl)cn3)cc(Cl)cc2N2CCOCC2)cc1`, 1.3 nM. On to `CN(C)C(=N)c1ccc(C(=O)Nc2ccc(C(F)(F)F)cc2C(=O)Nc2ccc(Cl)cn2)cc1`, for which the IC50 came out at 1.3 nM.

The compound `COCCN(C)c1cc(C(=N)N(C)C)ccc1C(=O)Nc1ccc(Cl)cc1C(=O)Nc1ccc(Cl)cn1` displayed an IC50 of 0.5 nM. This IC50 lies about 2.6-fold lower than the previous one.

On to `COc1cc(Cl)cc(C(=O)Nc2ccc(Cl)cn2)c1NC(=O)c1ccc(C(=N)N(C)C)cc1`, for which inhibition was half-maximal at 0.6 nM (IC50). `CCN(C)C(=N)c1ccc(C(=O)Nc2ccc(Cl)cc2C(=O)Nc2ccc(Cl)cn2)cc1` yielded an IC50 of 0.9 nM. Same read-out and setting: the figure for `CN(C)C(=N)c1ccc(C(=O)Nc2ccc(C#N)cc2C(=O)Nc2ccc(Cl)cn2)cc1` is 1.2 nM. Turning to `N=C(c1ccc(C(=O)Nc2ccc(Cl)cc2C(=O)Nc2ccc(Cl)cn2)cc1)N1CCC1`, the IC50 turned out to be 1.2 nM.

Test system in the next data set: not listed separately
Description: Oral bioavailability in rat. The format is ADME, organism-based. The following applies: in vivo.
Regarding `COc1ccc(NC(=O)c2ccc(C(=N)N(C)C)cc2N2CCC(C(=O)O)CC2)c(C(=O)Nc2ccc(Cl)cn2)c1`, the bioavailability was below 5%. In the case of `CN(C)C(=N)c1ccc(C(=O)Nc2ccc(Cl)cc2C(=O)Nc2ccc(Cl)cn2)c(N2CCCCC2)c1`, the bioavailability is 21.3%. In the case of `CN(C)C(=N)c1ccc(C(=O)Nc2ccc(OCC(=O)O)cc2C(=O)Nc2ccc(Cl)cn2)cc1`, the bioavailability is below 5%. In turn, `CN(C)C(=N)c1ccc(C(=O)Nc2ccc(Cl)cc2C(=O)Nc2ccc(Cl)cn2)c(N2CCCC2)c1` showed a bioavailability of 6.9%. `COCCN(C)c1cc(Cl)cc(C(=O)Nc2ccc(Cl)cn2)c1NC(=O)c1ccc(C(=N)N(C)C)cc1` returned a bioavailability of 8.1%.

Compound `C#Cc1ccc(NC(=O)c2ccc(C(=N)N(C)C)cc2)c(C(=O)Nc2ccc(Cl)cn2)c1` came in with a bioavailability of 27.9%. `COc1cc(Cl)cc(C(=O)Nc2ccc(Cl)cn2)c1NC(=O)c1ccc(C(=N)N(C)C)cc1` gave a bioavailability of 11.2%.

In general, clearance refers to a measure of how efficiently the substance is removed, as volume per time. A higher clearance goes with efficient removal. Broadly, the half-life is the time needed for the level to fall by half in the phase considered. As a reminder, the IC50 is the midpoint of a concentration-inhibition curve. Broadly, the bioavailability is the share of a dose that reaches the circulation, judged against a reference dose that is usually intravenous.

The record behind these values is ChEMBL document CHEMBL1138586 (Bioorg Med Chem Lett, 2009).
